Test results reported in ChEMBL document CHEMBL4007384, “Synthesis and optimization of furano[3,2-d]pyrimidines as selective spleen tyrosine kinase (Syk) inhibitors” (Bioorg Med Chem Lett, 2016).
≈ marks a conversion by molar mass, not a printed value.

Tests used:
[1] = Unbound clearance in rat microsomes; format: ADME, Microsome
[2] = Unbound clearance in human microsomes; format: ADME, Microsome
[3] = target: Serine/threonine-protein kinase B-raf (Homo sapiens, UniProt P15056); assay: Inhibition of BRAF (unknown origin) after 60 mins by TR-FRET assay
[4] = Inhibition of CDK11 (unknown origin) after 60 mins by TR-FRET assay; design: species or system Homo sapiens
[5] = target: T1, Serine/threonine-protein kinase Nek2 (Homo sapiens, UniProt P51955); assay: Inhibition of NEK2 (unknown origin) after 60 mins by TR-FRET assay
T1 sequence (P51955 whole entry): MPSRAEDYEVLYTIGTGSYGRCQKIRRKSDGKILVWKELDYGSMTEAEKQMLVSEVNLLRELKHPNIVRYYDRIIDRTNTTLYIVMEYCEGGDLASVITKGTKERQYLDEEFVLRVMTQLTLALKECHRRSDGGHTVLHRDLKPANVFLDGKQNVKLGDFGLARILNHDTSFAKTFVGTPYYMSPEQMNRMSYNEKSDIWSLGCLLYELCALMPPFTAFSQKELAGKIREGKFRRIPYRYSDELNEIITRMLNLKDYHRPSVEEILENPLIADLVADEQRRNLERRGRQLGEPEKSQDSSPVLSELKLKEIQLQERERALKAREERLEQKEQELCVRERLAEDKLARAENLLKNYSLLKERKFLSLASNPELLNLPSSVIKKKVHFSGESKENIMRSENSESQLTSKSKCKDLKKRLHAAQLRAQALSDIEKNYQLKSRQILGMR

[6] = target: cGMP-dependent protein kinase 1 (Homo sapiens, UniProt Q13976); assay: Inhibition of PKG1A (unknown origin) after 60 mins by TR-FRET assay
[7] = target: Rho-associated protein kinase 2 (Homo sapiens, UniProt O75116); assay: Inhibition of ROCK2 (unknown origin) after 60 mins by TR-FRET assay
[8] = target: T2, Serine/threonine-protein kinase TAO2 (Homo sapiens, UniProt Q9UL54); assay: Inhibition of TAOK2 (unknown origin) after 60 mins by TR-FRET assay
T2 sequence (Q9UL54 whole entry): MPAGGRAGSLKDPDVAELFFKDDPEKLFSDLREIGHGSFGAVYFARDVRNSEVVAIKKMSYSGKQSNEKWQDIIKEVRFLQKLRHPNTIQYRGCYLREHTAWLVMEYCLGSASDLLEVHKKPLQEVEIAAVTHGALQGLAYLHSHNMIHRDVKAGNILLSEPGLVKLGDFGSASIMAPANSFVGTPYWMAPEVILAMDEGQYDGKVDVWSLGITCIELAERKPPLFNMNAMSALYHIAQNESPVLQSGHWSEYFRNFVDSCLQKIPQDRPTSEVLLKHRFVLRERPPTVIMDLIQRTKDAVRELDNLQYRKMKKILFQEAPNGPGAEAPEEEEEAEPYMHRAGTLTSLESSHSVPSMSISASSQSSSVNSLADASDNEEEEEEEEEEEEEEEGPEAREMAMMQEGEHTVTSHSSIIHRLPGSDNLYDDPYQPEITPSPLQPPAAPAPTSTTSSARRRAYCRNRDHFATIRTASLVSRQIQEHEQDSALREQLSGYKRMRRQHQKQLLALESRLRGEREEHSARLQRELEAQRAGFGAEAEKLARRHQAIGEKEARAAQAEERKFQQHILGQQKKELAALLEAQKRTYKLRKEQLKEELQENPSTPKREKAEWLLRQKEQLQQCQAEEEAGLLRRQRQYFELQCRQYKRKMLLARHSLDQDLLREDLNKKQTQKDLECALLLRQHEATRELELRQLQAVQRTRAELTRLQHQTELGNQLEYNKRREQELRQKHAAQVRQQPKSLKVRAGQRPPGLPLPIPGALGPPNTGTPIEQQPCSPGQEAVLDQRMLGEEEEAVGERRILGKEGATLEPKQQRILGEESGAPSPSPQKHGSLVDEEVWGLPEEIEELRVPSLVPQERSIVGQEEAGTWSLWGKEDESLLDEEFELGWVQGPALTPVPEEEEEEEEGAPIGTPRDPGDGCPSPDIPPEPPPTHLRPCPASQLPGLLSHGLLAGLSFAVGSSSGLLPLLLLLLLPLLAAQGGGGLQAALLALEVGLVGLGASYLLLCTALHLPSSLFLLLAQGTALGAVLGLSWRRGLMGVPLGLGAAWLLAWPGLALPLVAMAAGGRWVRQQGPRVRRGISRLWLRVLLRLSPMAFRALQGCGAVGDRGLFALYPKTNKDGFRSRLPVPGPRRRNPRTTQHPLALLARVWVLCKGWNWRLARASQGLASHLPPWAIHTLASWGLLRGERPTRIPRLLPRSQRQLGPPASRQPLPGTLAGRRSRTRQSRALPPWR

[9] = target: T3, Dual specificity protein kinase TTK (Homo sapiens, UniProt P33981); assay: Inhibition of TTK (unknown origin) after 60 mins by TR-FRET assay
T3 sequence (P33981 whole entry): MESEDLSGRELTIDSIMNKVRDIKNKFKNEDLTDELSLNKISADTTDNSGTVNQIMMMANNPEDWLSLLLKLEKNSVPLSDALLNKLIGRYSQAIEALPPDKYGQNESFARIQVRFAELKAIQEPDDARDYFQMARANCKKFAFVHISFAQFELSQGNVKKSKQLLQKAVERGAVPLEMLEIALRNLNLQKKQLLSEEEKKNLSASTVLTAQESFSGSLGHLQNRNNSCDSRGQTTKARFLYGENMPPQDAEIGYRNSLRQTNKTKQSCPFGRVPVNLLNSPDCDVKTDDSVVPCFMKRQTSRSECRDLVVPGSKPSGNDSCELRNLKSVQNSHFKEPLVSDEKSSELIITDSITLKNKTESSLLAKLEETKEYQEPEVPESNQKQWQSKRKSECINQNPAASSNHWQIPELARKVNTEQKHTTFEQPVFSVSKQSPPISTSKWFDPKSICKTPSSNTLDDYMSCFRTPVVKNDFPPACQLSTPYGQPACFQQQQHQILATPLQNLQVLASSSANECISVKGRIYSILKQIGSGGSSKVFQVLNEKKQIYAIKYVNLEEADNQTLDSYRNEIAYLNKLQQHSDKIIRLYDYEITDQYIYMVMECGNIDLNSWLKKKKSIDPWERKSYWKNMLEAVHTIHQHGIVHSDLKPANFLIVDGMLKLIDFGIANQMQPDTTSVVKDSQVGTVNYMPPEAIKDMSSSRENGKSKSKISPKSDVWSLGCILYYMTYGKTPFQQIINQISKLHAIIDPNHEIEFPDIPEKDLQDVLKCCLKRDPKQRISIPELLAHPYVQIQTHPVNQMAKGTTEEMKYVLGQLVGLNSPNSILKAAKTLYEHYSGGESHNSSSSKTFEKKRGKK

[10] = target: T4, Tyrosine-protein kinase SYK (Homo sapiens, UniProt P43405)
Description: Inhibition of C-terminal His-tagged Syk catalytic domain (356 to 635 residues) (unknown origin) using biotin-TYR1 as substrate after 60 mins by TR-FRET assay

[11] = target: T4, Tyrosine-protein kinase SYK; remark: listed apart in the source
Description: Inhibition of Syk (unknown origin) after 60 mins by TR-FRET assay

[12] = Solubility in pH 5 FeSSIF at 0.2 mg sonicated for 10 mins followed by incubation for 2 days by HPLC analysis; format: physicochemical

Sequence of Rho-associated protein kinase 2 (O75116 whole entry): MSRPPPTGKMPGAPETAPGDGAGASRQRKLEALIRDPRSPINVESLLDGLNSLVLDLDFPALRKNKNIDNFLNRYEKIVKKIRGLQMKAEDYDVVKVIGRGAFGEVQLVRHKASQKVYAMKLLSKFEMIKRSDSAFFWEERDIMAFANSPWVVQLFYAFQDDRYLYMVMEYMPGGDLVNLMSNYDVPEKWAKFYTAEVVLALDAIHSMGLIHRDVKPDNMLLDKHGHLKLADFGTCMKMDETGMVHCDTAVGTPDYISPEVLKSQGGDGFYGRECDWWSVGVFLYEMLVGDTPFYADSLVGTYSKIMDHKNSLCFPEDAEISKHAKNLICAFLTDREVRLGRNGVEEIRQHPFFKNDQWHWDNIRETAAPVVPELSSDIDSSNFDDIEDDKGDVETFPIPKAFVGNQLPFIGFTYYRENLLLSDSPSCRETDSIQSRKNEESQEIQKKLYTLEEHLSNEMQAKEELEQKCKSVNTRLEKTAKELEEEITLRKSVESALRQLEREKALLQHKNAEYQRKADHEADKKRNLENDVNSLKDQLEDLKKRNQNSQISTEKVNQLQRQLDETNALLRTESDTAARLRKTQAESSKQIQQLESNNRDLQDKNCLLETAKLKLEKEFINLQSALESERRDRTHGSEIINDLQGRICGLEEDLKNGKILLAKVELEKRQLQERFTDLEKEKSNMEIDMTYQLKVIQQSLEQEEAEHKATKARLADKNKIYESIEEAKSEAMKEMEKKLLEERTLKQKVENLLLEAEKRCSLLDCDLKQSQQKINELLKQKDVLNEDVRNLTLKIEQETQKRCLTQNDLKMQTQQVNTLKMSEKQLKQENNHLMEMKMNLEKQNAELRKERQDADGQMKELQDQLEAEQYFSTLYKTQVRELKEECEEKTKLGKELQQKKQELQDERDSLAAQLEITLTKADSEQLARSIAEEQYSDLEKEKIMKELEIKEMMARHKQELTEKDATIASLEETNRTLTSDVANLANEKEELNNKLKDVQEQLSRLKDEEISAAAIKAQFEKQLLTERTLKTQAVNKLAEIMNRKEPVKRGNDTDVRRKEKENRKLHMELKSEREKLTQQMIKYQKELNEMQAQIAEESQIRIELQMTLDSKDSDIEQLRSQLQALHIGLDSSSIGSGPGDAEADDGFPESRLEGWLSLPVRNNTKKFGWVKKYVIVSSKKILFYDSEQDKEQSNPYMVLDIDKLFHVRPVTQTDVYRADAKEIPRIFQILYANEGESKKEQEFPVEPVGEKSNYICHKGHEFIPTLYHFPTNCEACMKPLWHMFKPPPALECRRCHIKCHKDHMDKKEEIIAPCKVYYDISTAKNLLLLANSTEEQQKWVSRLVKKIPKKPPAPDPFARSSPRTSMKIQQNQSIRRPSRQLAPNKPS
Sequence of cGMP-dependent protein kinase 1 (Q13976 whole entry): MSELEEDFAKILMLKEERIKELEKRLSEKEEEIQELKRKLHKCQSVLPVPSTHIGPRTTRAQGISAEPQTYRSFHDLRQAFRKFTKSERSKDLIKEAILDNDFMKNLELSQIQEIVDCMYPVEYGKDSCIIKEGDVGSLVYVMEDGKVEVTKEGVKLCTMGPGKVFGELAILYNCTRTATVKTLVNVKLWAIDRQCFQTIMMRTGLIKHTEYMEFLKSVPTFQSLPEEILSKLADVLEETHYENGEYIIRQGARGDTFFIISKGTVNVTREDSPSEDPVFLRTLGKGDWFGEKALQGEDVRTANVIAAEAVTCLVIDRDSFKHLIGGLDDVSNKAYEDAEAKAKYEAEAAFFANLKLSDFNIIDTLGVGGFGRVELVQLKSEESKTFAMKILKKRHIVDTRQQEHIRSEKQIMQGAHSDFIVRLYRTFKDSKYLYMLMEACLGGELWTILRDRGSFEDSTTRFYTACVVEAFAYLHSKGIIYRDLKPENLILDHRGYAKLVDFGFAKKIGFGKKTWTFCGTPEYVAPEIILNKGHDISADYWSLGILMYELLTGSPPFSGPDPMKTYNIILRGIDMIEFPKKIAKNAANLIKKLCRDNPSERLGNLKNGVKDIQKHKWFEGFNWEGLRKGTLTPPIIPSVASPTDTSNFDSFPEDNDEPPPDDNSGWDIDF
Sequence of Serine/threonine-protein kinase B-raf (P15056 whole entry): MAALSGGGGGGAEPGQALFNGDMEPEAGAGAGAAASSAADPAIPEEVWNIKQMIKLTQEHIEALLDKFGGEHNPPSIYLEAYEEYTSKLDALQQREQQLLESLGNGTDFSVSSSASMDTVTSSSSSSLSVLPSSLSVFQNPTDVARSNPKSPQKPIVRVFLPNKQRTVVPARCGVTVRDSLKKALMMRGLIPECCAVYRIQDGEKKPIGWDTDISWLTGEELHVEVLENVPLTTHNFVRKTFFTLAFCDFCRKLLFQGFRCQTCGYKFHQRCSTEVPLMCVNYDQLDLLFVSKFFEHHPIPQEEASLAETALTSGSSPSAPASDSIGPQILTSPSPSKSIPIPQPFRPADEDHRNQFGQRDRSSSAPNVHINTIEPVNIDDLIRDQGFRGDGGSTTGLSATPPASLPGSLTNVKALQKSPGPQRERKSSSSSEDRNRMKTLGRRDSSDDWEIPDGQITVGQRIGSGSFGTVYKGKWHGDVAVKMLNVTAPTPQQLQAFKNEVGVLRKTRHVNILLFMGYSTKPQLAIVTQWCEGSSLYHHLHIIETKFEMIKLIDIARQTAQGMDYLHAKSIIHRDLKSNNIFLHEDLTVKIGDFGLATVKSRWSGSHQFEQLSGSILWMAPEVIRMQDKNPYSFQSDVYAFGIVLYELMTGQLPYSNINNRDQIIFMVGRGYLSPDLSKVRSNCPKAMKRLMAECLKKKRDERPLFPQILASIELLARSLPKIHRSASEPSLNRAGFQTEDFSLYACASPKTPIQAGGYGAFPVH

| CL free [1] | CL free [2] | solubility at 48 h [12] | Structure (SMILES) | other results |
| --- | --- | --- | --- | --- |
| 397 mL/min/kg | 317 mL/min/kg | – | CC1(C)CCC(=O)Nc2cc(Nc3nc(NC4CC4)c4occc4n3)ccc21 | – |
| 332 mL/min/kg | 118 mL/min/kg | – | COC(=O)N[C@H]1CC(C)(C)c2ccc(Nc3nc(NC4CC4)c4occc4n3)cc2NC1=O | – |
| – | – | – | CCCNC(=O)c1ccc(Nc2nc(NCC(F)(F)F)c3cc[nH]c3n2)cc1 | IC50 [3]: > 10000 nM; IC50 [4]: > 10000 nM; IC50 [5]: > 10000 nM; IC50 [6]: > 10000 nM; IC50 [7]: 248 nM; IC50 [8]: 529 nM; IC50 [9]: 991 nM; IC50 [10]: 17 nM; IC50 [11]: 8 nM |
| 318 mL/min/kg | 91.7 mL/min/kg | > 67 µM | CCNc1nc(Nc2ccc3c(c2)NC(=O)COC3(C)C)nc2ccoc12 | – |
| 373 mL/min/kg | 307 mL/min/kg | > 200 µM | CCCNc1nc(Nc2ccc3c(c2)NC(=O)COC3(C)C)nc2ccoc12 | – |
| 182 mL/min/kg | 123 mL/min/kg | 27 µM (≈ 12.2 µg/mL) | COC(=O)N[C@@H]1CC(C)(C)c2ccc(Nc3nc(NC4CC4)c4occc4n3)cc2NC1=O | – |
| 365 mL/min/kg | – | – | O=C1CCc2ccc(Nc3nc(NCC(F)(F)F)c4occc4n3)cc2N1 | – |
